Experimental data reported in patent US12617799B2, “Pyrazolopyrimidinone compounds” (Orphagen Pharmaceuticals, Inc., priority 2021, dated 2026).
pEC50: −log10 of the molar value. Where two headings read alike, the source gives them in different places.

Key:
human SF-1 = target: T1, human SF-1 (Homo sapiens, UniProt Q13285); assay: SF-1 Luc assay (Gal4DBD-SF-1LBD luciferase reporter in transfected CHO-K1 cells); format: cell-based; conditions: CHO-K1 cells transfected with GAL4-SF-1 plasmid, 40 hours incubation; read-out: hSF-1-Luc: EC50
T1 construct: expressed in transfected cells; host or cells: CHO-K1 cells (Chinese hamster ovary), transient cotransfection with pG5luc
T1 sequence (Q13285 198-461 limits assumed): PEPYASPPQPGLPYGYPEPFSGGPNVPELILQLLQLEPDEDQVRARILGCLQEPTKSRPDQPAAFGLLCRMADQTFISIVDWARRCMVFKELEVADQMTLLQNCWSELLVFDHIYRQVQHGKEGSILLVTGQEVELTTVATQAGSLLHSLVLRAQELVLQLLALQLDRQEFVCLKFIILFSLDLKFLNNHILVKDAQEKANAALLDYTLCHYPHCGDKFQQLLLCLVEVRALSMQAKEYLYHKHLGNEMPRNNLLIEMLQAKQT
Description: BamHI and XbaI sites introduced by the primers […] (forward) and […] (reverse) were used for subcloning the amplicon into pFA-CMV.
Cells were routinely cultured by splitting them from 1:10 to 1:20. […] Four hours after transfection, cells were trypsinized and suspended to a concentration of 1.6×10^5 cells/ml in supplemented Ham's F-12 media.
Assays: The collected cells were resuspended in the culture medium and plated into a 384 well-white plate (Corning Life Sciences, Acton, MA) at 8,000 cells/50 μL/well.
Measurement of SF-1 Transcriptional Activity: SF-1 transcriptional activity was detected as the intracellular Luc activity using SteadyLite Plus HTS Reporter Gene Assay System. After the measurement of the cell viability, the culture media in the 384 well-plate were completely removed. Then, 30 μL of the Luc substrate solution was added into each well and incubated for 10 min at room temperature. After the incubation, luminescence of each well was measured by a microplate reader.
Calculation of the SF-1 Transcriptional Activity (% of Control): The % of control for the transcriptional activity was calculated according to the following equation: % of control=A/B×100 Equation • A: luminescence count in the test article-treated CHO cells transfected with GAL4-SF-1 plasmid • B: mean luminescence count in the vehicle-treated CHO cells transfected with GAL4-SF-1 plasmid

[1] = test system: rat Leydig tumor cell line R2C; assay: R2C proliferation assay for SF-1 antagonists (EdU incorporation); format: cell-based; conditions: read-out: R2C: EC50
Procedure: SF-1 regulates progenitor cell formation and survival in adult Leydig cells. Anti-proliferative effects of SF-1 antagonists using a SF-1+ rat Leydig tumor cell line, R2C, was investigated. Cell proliferation was measured by detecting DNA incorporation of EdU, a nucleoside analogue that can be fluorescently tagged after cell fixation.
Proliferation of the rat Leydig tumor cell line R2C (ATCC® CCL-97™) was assessed using 5-ethynyl-2′-deoxyuridine (EdU), a nucleoside analogue incorporated during DNA synthesis that can be fluorescently tagged after cell fixation. Cycloheximide, a protein synthesis inhibitor, was used as a positive control for the assay.
R2C cells are maintained according to a protocol provided by the American Type Culture Collection (ATCC). At the time of assay, R2C cells were diluted to 1.0 million cells/mL with culture medium (F12 medium supplemented with 2% FBS and 1% Penicillin-Streptomycin) and 50 uL of cell suspension seeded into each well of 384-well clear bottom plates. The assay plates were incubated in a humidified, 37° C., 6% CO2 atmosphere for 24 hours. Serially diluted SF-1 antagonists, cycloheximide or vehicle (DMSO) were then applied to the R2C cells and incubated in a humidified, 37° C., 6% CO2 atmosphere for two days. EdU (Invitrogen), at a final concentration of 5 μM, was added to the cells and incubated for an additional 16 hours, after which cells were fixed with 10% formalin.
Cells were then washed and permeabilized in 0.5% TritonX-100/PBS solution at RT for 1 hour. EdU incorporation was detected by labeling EdU with 6-FAM azide (Lumiprobe) using a copper (I)-catalyzed Click reaction between an azide and alkyne. The reaction mixture consists of 5 mM ascorbic acid, 1 mM CuSO4, 1 μM 6-FAM azide dissolved in PBS buffer. […] For data normalization, the average fluorescence of DMSO wells was defined as 100%, and average fluorescence of 10 μM cycloheximide wells was defined as 0%. Curve fitting and EC50 determination were performed using the variable slope sigmoidal dose-response analysis.
R2C cells were routinely cultured in R2C culture medium. To assay SF-1 antagonist inhibitory activity, R2C cells were resuspended in the R2C plating medium and plated into a 384 well-clear bottom black plate at 20,000 cells/50 μL/well. […] 10 μL EdU plating solution were then dispensed into each well of assay plate incubated at 37° C., 6% CO2 for two days.
R2C proliferation is measured by detecting the fluorescent labelled EdU. The R2C assay plates were fixed by dispense 60 μL of 10% formalin into each well, and the plates were incubated at room temperature for 1 hour on an orbital shaker. The plates were washed with 80 μL of PBS three times, and cells were permeabilized by treating with 100 μL of PBS-0.5% TritonX-100 at RT for 1 hour on an orbital shaker. The plates were washed with 80 μL of PBS three times, and after the last wash, 25 μL of PBS was dispensed into each well. 25 μL of 2× mounting mix solution was then added into each well of fixed cells, and the plates were incubated at RT for 30 min in the dark on an orbital shaker. The cells were washed with 80 μL of PBS, three times, and after the last wash, 25 μL of PBS was dispensed into each well. […] The cells were washed with 80 μL of PBS, three times, and after the last wash, 50 μL of PBS was dispensed into each well. Assay plates were sealed with aluminum foil, and fluorescence was measured using a Envision microplate reader.
The % of control for the proliferation activity was calculated according to the following equation: % of control=100×(A−C)/(B−C) Equation • A: fluorescence count in the test article-treated R2C cells • B: mean fluorescence count in the vehicle-treated R2C cells • C: mean fluorescence count in the 10 μM cycloheximide-treated R2C cells

SMILES	pEC50 (human SF-1)	pEC50 ([1]; R2C cells, EdU incorporation)	pEC50 ([1]; R2C)
C[C@H](NC(=O)Cn1cnc2c(Nc3ccc(C(F)(F)F)cc3)nn(C)c2c1=O)C1CCOCC1 [Compound 17, (S)-2-(1-methyl-7-oxo-3-((4-(trifluoromethyl)phenyl)amino)-1,7-dihydro-6H-pyrazolo[4,3-d]pyrimidin-6-yl)-N-(1-(tetrahydro-2H-pyran-4-yl)ethyl)acetamide]	> 6.70	6.00 to 6.70	
Cn1nc(Nc2ccc(C(F)(F)F)cc2)c2ncn(CC(=O)N[C@H]3CC[C@H](O)CC3)c(=O)c21 [Compound 28, N-((trans)-4-hydroxycyclohexyl)-2-(1-methyl-7-oxo-3-((4-(trifluoromethyl)phenyl)amino)-1,7-dihydro-6H-pyrazolo[4,3-d]pyrimidin-6-yl)acetamide]	6.00 to 6.70	5.00 to 6.00	
Cn1nc(Nc2ccc(C(F)(F)F)cc2)c2ncn(CC(=O)N[C@H]3CCC[C@H](OC(F)F)C3)c(=O)c21 (single isomer, unassigned) [Compound 43]	> 6.70		> 6.70
